Here are results for 75 substances from PMC4865845, “A human genome-wide loss-of-function screen identifies effective chikungunya antiviral drugs” (Nature Communications, 2016).

This data set relates to CHIKV. It counts as cell-based, chikungunya virus.
The substance “s28365 (sense AGATCGACAAGAACGAAGA; chemistry not given here) [reference compound]” yielded a Score_si4 of -0.72.

For the substance “s16633 (CAACCACAATGTTCGTAAA; chemistry not given here)”, the Score_si3 is 1.99.

Take “s29017 (GTCAGTACTTTATCTCGTT; chemistry not given here)”: the Score_si2 was 1.25.

The substance “s38697 (GCAATTTGCTGTTGCCGAA; chemistry not given here)” registered a Score_si3 of -0.06.

In the case of “Hs_BCHE_3 (CAGGAGTGAGTGAGTTTGGAA; chemistry not given here)”, the Score_si3 stood at 0.6.

“s15614 (sense GCAAGTCGTGAAACTATAA; chemistry not given here)” returned a Score_si4 of 0.64.

On to “s13806 (sense TCATCACCGTGTCCAATCA; chemistry not given here)”, for which the Score_si2 came out at 1.6.

In turn, “Hs_SAFB_3 (sense CTGCCATATTGTAGCTCAATA; chemistry not given here)” had a Score_si1 of 1.4.

“s50641 (sense ACAACTCTGTGCACAACAA; chemistry not given here)” displayed a Score_si4 of 0.17.

The substance “s15796 (CTACGATTCTGGTGGAATA; chemistry not given here)” had a Score_si1 of 1.5.

Substance “Hs_FLJ10134_1 (CTGATGTTATATGACTATAAA; chemistry not given here)” gave a Score_si1 of 1.71.

Substance “Hs_PHF10_5 (ATGGCAGTGTATGGAATGTAA; chemistry not given here)” yielded a Score_si1 of 2.93.

The substance “Hs_MGC21830_1 (CCGGAGACAGCGGCTGATTTA; chemistry not given here) [reference compound]” showed a Score_si1 of -1.05.

Substance “Hs_CAMKK2_7 (sense CTAGCTGATTGTTGTGGTCAA; chemistry not given here)” yielded a Score_si2 of 1.31.

Take “Hs_PD2_1 (ACCGAGGAAGAAATATACAAA; chemistry not given here)”: the Score_si4 was 1.16.

The substance “Hs_NRD1_1 (CAGGGTGAAGCCACTTCATTA; chemistry not given here)” came in with a Score_si3 of 1.32.

Substance “Hs_CDK4_3 (sense ACCCTGGTGTTTGAGCATGTA; chemistry not given here)” gave a Score_si3 of 1.02.

“s16316 (GAATTAGGAAGGACTATTT; chemistry not given here)” gave a Score_si2 of 0.85.

“s3626 (GAATTTGCGATGTACTTAA; chemistry not given here)” registered a Score_si2 of 1.98.

For “Hs_WDR40A_2 (AACACTGATAATAGGAAGTAA; chemistry not given here) [reference compound]”, the Score_si4 is listed as -0.22.

“s11745 (sense CACTCTCTGTAAGCATATA; chemistry not given here)”: the Score_si2 was determined as 1.42.

Turning to “s18074 (CCTCGAGACTATACGGTTA; chemistry not given here) [reference compound]”, the Score_si4 is -0.5.

“s5571 (sense GCAGGACGAGGGTAAAGAA; chemistry not given here)” yielded a Score_si2 of 0.56.

For “Hs_SREBF2_3 (sense CTGCAATTTGTCAGTAATCAA; chemistry not given here)”, the Score_si1 came to 2.21.

The substance “Hs_NRCAM_1 (CAGGCCTTCAGTACAAAGTTA; chemistry not given here)” displayed a Score_si3 of 0.75.

“s15798 (GAATTACGGAGATATAGAA; chemistry not given here)” came in with a Score_si2 of 1.46.

“Hs_PEX19_3 (CCCATTCAAGATTGTGCCATA; chemistry not given here)” gave a Score_si4 of 0.41.

“s16999 (GCACGTAACAGCTAAGGAA; chemistry not given here)” had a Score_si2 of 1.29.

In turn, “s16317 (GAACGAGTCCTTGAAGGTT; chemistry not given here)” registered a Score_si4 of 0.08.

“Hs_GSTP1_3 (sense TCCTTTCTCCAGGACCAATAA; chemistry not given here)” registered a Score_si4 of -0.14.

Regarding “s915 (CATCCAGTCTGTATACGAA; chemistry not given here)”, the Score_si1 is listed as 1.9.

On to “Hs_FLJ20257_2 (sense CACCAAGTGGGTGCATCTGAA; chemistry not given here)”, for which the Score_si1 is recorded as 2.26.

Take “s6671 (sense CAACGAAAATCTAAATGCA; chemistry not given here)”: the Score_si2 is given as 0.2.

For the substance “Hs_HMGA1L4_1 (sense AAGCCTCAGCTCAAACTCAAA; chemistry not given here)”, the Score_si1 is 2.38.

As for “s16318 (AGGCATCTTTGAGACGATT; chemistry not given here)”, the Score_si3 is listed as 0.61.

Substance “Hs_PMPCB_4 (TACATTTATAATAGGAGTCCA; chemistry not given here)” gave a Score_si4 of 0.83.

The substance “Hs_NCOA1_1 (CAGCGGGAACTGTACAGTCAA; chemistry not given here)” showed a Score_si2 of 1.96.

Take “s195061 (sense CTGTATGGCTTCTATATAA; chemistry not given here)”: the Score_si4 was 1.03.

As to “Hs_LOC407835_6 (sense CTGCTGGACTATATTGTGAAA; chemistry not given here)”, the Score_si3 amounted to 0.74.

“Hs_IRAK1_5 (sense CCGGGCAATTCAGTTTCTACA; chemistry not given here)”: the Score_si4 turned out to be 1.36.

“Hs_FLJ20530_2 (sense TTGACTTATCTTCATCATAAA; chemistry not given here)” came in with a Score_si1 of 2.95.

On to “s20631 (sense GGACGGAAGCGAAAATCGA; chemistry not given here)”, for which the Score_si3 came out at 1.89.

“s9665 (CTCTCGTCCTTCTAGTAAA; chemistry not given here) [reference compound]” displayed a Score_si3 of -0.95.

Consider “s18240 (GATTGATGCTGGAAGTAGA; chemistry not given here)”, for which the Score_si3 worked out at 1.21.

Substance “Hs_BRD8_1 (TGCAATGACATTGCAACGAAA; chemistry not given here)” yielded a Score_si4 of 0.57.

Consider “s12243 (sense GCTGGGACAAGACACTGTA; chemistry not given here)”, for which the Score_si3 was found to be 1.87.

For the substance “s14380 (sense GGACCACGTCAAGACTTGT; chemistry not given here) [reference compound]”, the Score_si3 was -0.84.

As for “Hs_LOC283377_3 (sense CAGGCCTTTCTCAGACTGTAT; chemistry not given here)”, the Score_si1 is 2.72.

Consider “s30118 (CCTGCTATCTTGGTTCCAA; chemistry not given here)”, for which the Score_si4 is 0.62.

The substance “Hs_ZBTB24_2 (CAGCATGTGTCTGTAATTGTA; chemistry not given here)” showed a Score_si1 of 2.57.

The substance “Hs_D21S2056E_1 (CAGGGAATTCAGCTCCAGTAA; chemistry not given here)” returned a Score_si1 of 2.83.

“Hs_ANKRD9_1 (AAGAGAGGTATGGGACCTGAA; chemistry not given here)”: the Score_si1 came out at 2.5.

“Hs_PPIL2_3 (CACCAATTTGGACAAGTTCAA; chemistry not given here)” yielded a Score_si2 of 1.2.

“Hs_UIP1_3 (CTCGAGGGTCTGTATATCACA; chemistry not given here) [reference compound]” gave a Score_si4 of 0.1.

Turning to “s617 (sense GGTCTTGGAGGGAATCCTA; chemistry not given here)”, the Score_si2 is on record as 1.33.

For the substance “s12110 (sense CAATCTCTCTTATCCTTGA; chemistry not given here)”, the Score_si2 is recorded as 1.28.

The substance “Hs_CAMKK2_4 (sense ACAGAAAGGGCTTGAAATTTA; chemistry not given here)” had a Score_si3 of 1.25.

In turn, “Hs_SSP411_1 (sense ATGGCCTTGCATACCCTGAAA; chemistry not given here)” gave a Score_si1 of 2.33.

The substance “Hs_YEATS4_2 (TTGGTAGTAAGCTAAACTGAA; chemistry not given here)” returned a Score_si2 of 1.07.

With “Hs_UMPS_2 (CAGGAGAAACCTGTTTAATCA; chemistry not given here)”, the Score_si1 came to 3.14.

“Hs_POLDIP3_2 (CCGGCTCAAACTGGGAGTCAA; chemistry not given here)” displayed a Score_si1 of 2.49.

Turning to “s49211 (sense GTTCCTGGGTGTTCACCTA; chemistry not given here)”, the Score_si4 worked out at 0.08.

The substance “Hs_GSTP1_5 (sense CCTCATCTACACCAACTATGA; chemistry not given here)” had a Score_si3 of 0.45.

“Hs_KRTCAP2_5 (sense CTCGCTCACTGCCTTCAATAA; chemistry not given here)” gave a Score_si3 of 1.15.

With “Hs_WIG1_2 (CAGGCTCATTATCAGGGTAAA; chemistry not given here)”, the Score_si4 is on record as -0.33.

Take “Hs_FLJ31164_2 (sense CCAGCTGAGCACCCGAATAAA; chemistry not given here)”: the Score_si4 is recorded as 0.41.

In turn, “Hs_MAP3K14_6 (TACCTAGTGCATGCTCTGCAA; chemistry not given here)” displayed a Score_si3 of 1.59.

In turn, “Hs_SDFR1_11 (sense TACATAAAGATGAGTAATATA; chemistry not given here) [reference compound]” had a Score_si4 of -1.37.

For the substance “s34427 (GGTCAGAGACCATCCAGAA; chemistry not given here)”, the Score_si2 was found to be 1.71.

As for “Hs_FCGRT_1 (CTCGTCGTCACTAACAGTCAA; chemistry not given here)”, the Score_si1 worked out at 2.15.

As for “Hs_NPEPL1_4 (CAGAATTCACTTGAGGTTCAA; chemistry not given here)”, the Score_si3 is 1.44.

Substance “Hs_YEATS4_1 (AAGGGTGTTACTATCGTTAAA; chemistry not given here)” returned a Score_si1 of 1.23.

In the case of “Hs_NCOA1_14 (CTCCTAATATTTCGACATTAA; chemistry not given here)”, the Score_si1 is given as 2.06.

Turning to “Hs_NUDT1_4 (CCGGGTTTCATCTGGAATTAA; chemistry not given here)”, the Score_si2 came out at 1.96.

With “Hs_KIAA0674_2 (sense CCCGGCAACATAACACTGAAA; chemistry not given here)”, the Score_si2 stood at 1.52.
